Results from EP4011367A1, “COMPOUNDS FOR USE IN THE TREATMENT OF COVID-19” (priority 2020, dated 2022).
Where a name gives a salt, the structure may show the parent alone. Read-outs that look alike come from different tables or passages of the source.

Target: T1, SARS-CoV-2 3CL-Pro (Severe acute respiratory syndrome coronavirus 2, UniProt P0DTD1)
T1 construct: SARS-CoV-2 main protease (3CL-Pro), also termed M-Pro
Test: biochemical
Conditions: for inhibition at 20 µM: read-out: 3CL-Pro Inhibition [%] Primary Screen (20 µM)

[1] = dose response, 8 concentrations, absence of DTT, 60 min pre-incubation at 37 °C, 15 µM substrate, 60 nM enzyme, read-out: IC50

SMILES | 3CL-Pro Inhibition [%] Primary Screen (20 µM) [%] | IC50 (read-out: IC50) [nM] | inhibition at 20 µM [%] | IC50 [nM] | IC50 [1] [nM]
[O-]n1ccccc1=S.[O-]n1ccccc1=S.[Zn+2] [compound 47, Bis[1-hydroxy-2(1H)-pyiridinethionato]zinc] | 99.7 | 2460 |  |  | 
Cn1sc(=O)n(Cc2ccccc2)c1=O [compound 19, 4-Benzyl-2-methyl-1,2,4-thiadiazolidine-3,5-dione] |  | 140 | 101 |  | 
CN(C)C(=S)SSC(=S)N(C)C [compound 45, dimethylcarbamothioylsulfanyl N ,N-dimethylcarbamodithioate] |  | 50 | 99.9 |  | 
Cc1ccc(C)c(-n2sc3cc(F)ccc3c2=O)c1 [compound 11, 2-(2,5-Dimethylphenyl)-6-fluoro-1,2-benzothiazol-3(2H)-one] |  | 20 | 101 |  | 
CC(C)[C@H](NC(=O)[C@H](CCC(=O)O)NC(=O)[C@H](CC(=O)O)NC(=O)OCc1ccccc1)C(=O)N[C@@H](CC(=O)O)C(=O)CF [compound 40, N-(Benzyloxycarbonyl)-L-aspartyl-L-glutamyl-L-valyl-L-aspartylfluoromethane] |  |  | 100 | 10 | 
CCCCCCNC(=O)n1cc(F)c(=O)[nH]c1=O [compound 55, 5-Fluoro-N-hexyl-2,4-dioxo-1,2,3,4-tetrahydropyrimidine-1-carboxamide] |  |  | 101 |  | 
CC(Cc1ccc(O)c(O)c1)C(C)Cc1ccc(O)c(O)c1 (stereo not shown) [compound 22, 4-[4-(3,4-dihydroxyphenyl)-2,3-dimethylbutyl]benzene-1,2-diol] |  | 2590 | 98.5 |  | 
C[N+]1(C)CCC(OC(=O)C(c2ccccc2)c2ccccc2)CC1 [compound 90, (1,1-dimethylpiperidin-1-ium-4-yl) 2,2-diphenylacetate;iodide] |  |  | 97.8 | 2360 | 
C=CC1=C(C)C2=Cc3c(C=C)c(C)c4[n]3[Fe]([Cl])[n]3c(c(C)c(CCC(=O)O)c3=CC3=NC(=C4)C(C)=C3CCC(=O)O)=CC1=N2 [compound 74, - (SP-5-13)-Chloro[3,8,13,17-tetramethyl-7,12-divinyl-21H,23H-porphine-2,18-dipropanoato(4-)-kappa N21,kappaN22,kappaN23,kappaN24]dihydrogenoferrate(2-)] |  |  |  | 880 | 
Cc1ccc(-n2sc3ccccc3c2=O)cc1 [compound 12, 2-(4-methylphenyl)-1,2-benzothiazol-3-one] |  |  | 101 | 20 | 
CCN1CCN(C(c2ccc(C(F)(F)F)cc2)c2ccc3cccnc3c2O)CC1 (stereo not shown) [compound 52, 7-[(4-Ethylpiperazin-1-yl)[4-(trifluoromethyl)phenyl]methyl]q uinolin-8-ol] |  | 150 | 100 |  | 
C=CC(=O)c1ccc2ccccc2c1 [compound 33, 1-naphthalen-2-ylprop-2-en-1-one] |  | 1240 | 94.5 |  | 
COc1ccc2[nH]c([S+]([O-])Cc3ncc(C)c(OC)c3C)nc2n1 (racemic) [compound 9, (±)-5-Methoxy-2-(4-methoxy-3,5-dimethylpyridin-2-ylmethylsulfinyl)imidazo[4,5-b]pyridine] |  |  | 69.1 | 970 | 
CCC(=O)OCN1C(=O)C=CC1=O [compound 36, Propionic acid 2,5-dioxo-2,5-dihydro-1H-pyrrol-1-ylmethyl ester] |  | 290 | 100 |  | 
Cc1ccc(-n2sc(=O)n(Cc3ccc(F)cc3)c2=O)cc1 [compound 53, 4-(4-Fluorobenzyl)-2-(4-methylphenyl)-1,2,4-thiadiazolidine-3,5-dione] |  | 150 |  |  | 
O=C(O)c1ccccc1-c1c2cc(Br)c(=O)cc-2oc2[c]([Hg][OH])c(O)c(Br)cc12 [compound 62, [2,7-dibromo-9-(2-carboxyphenyl)-3-hydroxy-6-oxoxanthen-4-yl]mercury;hydrate] |  |  |  | 240 | 
Nc1nnc(Sc2ncc([N+](=O)[O-])s2)s1 [compound 44, 5-(5-Nitrothiazol-2-ylsulfanyl)-1,3,4-thiadiazol-2-amine] |  | 30 | 99.9 |  | 
CN=c1nc(-c2ccccc2)n(-c2ccccc2)s1 [compound 76, N-(2,3-Diphenyl-2,5-dihydro-1,2,4-thiadiazol-5-ylidene)-N-methylamine] |  |  | 99.8 |  | 980
CN(C)CCNc1nc2cc(O)ccc2c2c1C(=O)c1ccccc1-2 [compound 38, 6-[2-(Dimethylamino)ethylamino]-3-hydroxy-7H-indeno[2,1-c]quinolin-7-one dihydrochloride] |  | 2990 | 96.1 |  | 
Oc1c(I)cc(I)c(O)c1I [compound 65, 2,4,6-Triiodoresorcine] |  | 330 | 99.7 |  | 
Oc1cc(CNC(=S)C=Cc2cc(O)c(O)c(Br)c2)cc(O)c1O [compound 68, 3-(3-Bromo-4,5-dihydroxyphenyl)-N-(3,4,5-trihydroxybenzyl)-2-propenethioamide] |  |  | 79.4 |  | 480
CCC(C)SSc1ncc[nH]1 (stereo not shown) [compound 28, (2-Imidazolyl)(1-methylpropyl)disulfide] |  |  | 100 |  | 

SMILES | 3CL-Pro Inhibition [%] Primary Screen (20 µM) [%] | IC50 (read-out: IC50) [nM] | inhibition at 20 µM [%] | IC50 [nM] | IC50 [1] [nM]
Cc1ccc(S(=O)(=O)N[C@@H](Cc2ccccc2)C(=O)C(=O)CCl)cc1 [compound 21, N-[(2S)-5-chloro-3,4-dioxo-1-phenylpentan-2-yl]-4-methylbenzenesulfonamide] |  |  | 99.7 | 1370 | 
CC(C)N(CCC(=O)c1ccc2ccccc2c1)Cc1ccccc1 [compound 71, 3-[benzyl(propan-2-yl)amino]-1-naphthalen-2-ylpropan-1-one] |  | 580 | 75.7 |  | 
O=c1c2ccccc2[se]n1-c1ccccc1 [compound 10, 2-Phenyl-1,2-benzisoselenazol-3(2H)-one] |  |  | 100 |  | 
O=C(O)c1cc(O)c2c(c1)[C@H]([C@H]1c3cc(C(=O)O)cc(O)c3C(=O)c3c(O[C@@H]4O[C@H](CO)[C@@H](O)[C@H](O)[C@H]4O)cccc31)c1cccc(O[C@@H]3O[C@H](CO)[C@@H](O)[C@H](O)[C@H]3O)c1C2=O [compound 81, (9R)-9-[(9R)-2-carboxy-4-hydroxy-10-oxo-5-[(2S,3R,4S,5S,6R)-3,4,5-trihydroxy-6-(hydroxymethyl)oxan-2-yl]oxy-9H-anthracen-9-yl]-4-hydroxy-10-oxo-5-[(2S,3R,4S,5S,6R)-3,4,5-trihydroxy-6-(hydroxymethyl)oxan-2-yl]oxy-9H-anthracene-2-carboxylic acid] |  |  | 103 |  | 
O=[N+]([O-])c1ccc(Sc2cccc[n+]2[O-])c2nonc12 [compound 50, 4-Nitro-1-[(1-oxidopyridin-2-yl)sulfanyl]-2,1,3-benzoxadiazole] |  | 100 | 102 |  | 
O=C(CCl)c1ccccc1 [compound 56, 2-chloro-1-phenylethanone] |  | 190 | 99.9 |  | 
CN(C)S(=O)(=O)c1cccc(-n2sc3ccccc3c2=O)c1 [compound 13, N,N-di methyl-3-(3-oxo-1,2-benzothiazol-2-yl)benzenesulfonamide] |  |  | 101 |  | 20
COCCCOc1ccnc(C[S+]([O-])c2nc3ccccc3[nH]2)c1C (stereo not shown) [compound 8, 2-[4-(3-Methoxypropoxy)-3-methylpyridin-2-ylmethylsulfinyl]benzimidazol-1-ide sodium salt] |  | 740 | 94.3 |  | 
O=C1C2CC=CCC2C(=O)N1SC(Cl)(Cl)Cl (stereo not shown) [compound 23, 2-(trichloromethylsulfanyl)-3a,4,7,7a-tetrahydroisoindole-1,3-dione] |  | 670 | 99.8 |  | 
Oc1ccc2ccccc2c1SSc1c(O)ccc2ccccc12 [compound 30, 1,1'-Disulfanediylbis(2-naphthol)] |  | 510 | 91.3 |  | 
COc1cc(C(=S)N2CCOCC2)ccc1O [compound 79, (4-hydroxy-3-methoxyphenyl)-orpholin-4-ylmethanethione] |  | 1320 | 100 |  | 
CN1CC[C@@]2(C)c3cc(O)ccc3N(C)[C@@H]12 [compound 85, (3aS,8bR)-3,4,8b-trimethyl-2,3a-dihydro-1H-pyrrolo[2,3-b] indol-7-ol] |  | 1990 | 91.5 |  | 
O=c1c2ccccc2sn1-c1ccccc1 [compound 14, 2-phenyl-1,2-benzothiazol-3-one] |  |  | 100 | 20 | 
O=C1C=Cc2cc(Br)ccc2C1=O [compound 32, 6-Bromonaphthalene-1,2-dione] |  | 40 | 102 |  | 
CC(=O)[O-].[Hg+][c]1ccccc1 [compound 42, acetyloxy(phenyl)mercury] |  |  |  | 10 | 
S=c1[nH]nc(Cc2ccccc2)s1 [compound 20, 5-benzyl-3H-1,3,4-thiadiazole-2-thione] |  |  | 101 |  | 390
C[C@@H]1O[C@@H](Oc2c(-c3cc(O)c(O)c(O)c3)oc3cc(O)cc(O)c3c2=O)[C@H](O)[C@H](O)[C@H]1O [compound 5, 5,7-Dihydroxy-4-oxo-2-(3,4,5-trihydroxyphenyl)-4H-1-benzopyran-3-yl alpha-L-rhamnopyranoside] |  |  | 90.6 | 3660 | 
c1ccc2sc(SN3CCOCC3)nc2c1 [compound 27, 4-(1,3-benzothiazol-2-ylsulfanyl)morpholine] |  | 5050 | 99 |  | 
CN(C)C(=S)SC(=S)N(C)C [compound 75, dimethylcarbamothioyl N,N-dimethylcarbamodithioate] |  | 940 |  |  | 
O=c1cc(-c2ccc(O)cc2)oc2cc(O)cc(O)c12 [compound 4, 4',5,7-Trihydroxyflavone] |  | 3020 | 94.5 |  | 
N#CSc1cc(SC#N)c(N)nc1N [compound 66, 2,6-Diaminopyridine-3,5-diyl bis(thiocyanate)] |  | 410 |  |  | 
